Values of other authors, collected in patent publication US20190365664A1, “CARYOPHYLLENE FORMULATIONS, APPARATUSES, AND METHODS” (Biotech Institute, LLC, priority 2016, published 2019).

Settings: other studies (National Geographic News, Jun. 24, 2008)

C=C1CC/C=C(\C)CC[C@@H]2[C@@H]1CC2(C)C [BCP, 4,11,11-Trimethyl-8-methylenebicyclo[7.2.0]undec-4-ene]
psychoactive effects: does not have psychoactive effects
